{"source": "patent US8093232B2", "about": "“2α-methyl-19-nor-(20S)-1α-hydroxy-bishomopregnacalciferol and its uses” (Wisconsin Alumni Research Foundation, priority 2004, dated 2012)", "key": {"[1]": {"tested_on": "vitamin D-deficient rats", "test": "Bone calcium mobilization (serum calcium) in vitamin D-deficient rats", "type": "in vivo, rat", "description": "(§1) Intestinal Calcium Transport and Bone Calcium Mobilization\n(§2) Male, weanling Sprague-Dawley rats were placed on Diet 11 (0.47% Ca) diet+AEK for one week followed by Diet 11 (0.02% Ca)+AEK for 3 weeks. The rats were then switched to a diet containing 0.47% Ca for one week followed by two weeks on a diet containing 0.02% Ca. Dose administration began during the last week on 0.02% calcium diet. Four consecutive ip doses were given approximately 24 hours apart. Twenty-four hours after the last dose, blood was collected from the severed neck and the concentration of serum calcium determined as a measure of bone calcium mobilization. The first 10 cm of the intestine was also collected for intestinal calcium transport analysis using the everted gut sac method."}, "[2]": {"tested_on": "24-hydroxylase (24 Ohase) gene promoter", "test": "In vitro transcription assay (24-hydroxylase promoter luciferase reporter in ROS 17/2.8 bone cells)", "type": "cell-based", "settings": "FIG. 3", "description": "In Vitro Transcription Assay\nTranscription activity was measured in ROS 17/2.8 (bone) cells that were stably transfected with a 24-hydroxylase (24 Ohase) gene promoter upstream of a luciferase reporter gene (Arbour et al., 1998). Cells were given a range of doses. Sixteen hours after dosing the cells were harvested and luciferase activities were measured using a luminometer.\nRLU=relative luciferase units."}, "[3]": {"tested_on": "vitamin D-deficient rats", "test": "Intestinal calcium transport (everted gut sac) in vitamin D-deficient rats", "type": "in vivo, rat", "settings": "for intestinal calcium transport: everted gut sac, FIG. 5", "description": "as §1, §2"}, "[4]": {"molecular_target": "T1, full-length recombinant rat vitamin D receptor (Rattus norvegicus, UniProt P13053)", "T1 construct": "Full-length recombinant rat receptor was expressed in E. coli BL21 (DE3) Codon Plus RIL cells; histidine tag (C); made in house; host or cells: E. coli BL21 (DE3) Codon Plus RIL", "T1 sequence (P13053 1-423)": "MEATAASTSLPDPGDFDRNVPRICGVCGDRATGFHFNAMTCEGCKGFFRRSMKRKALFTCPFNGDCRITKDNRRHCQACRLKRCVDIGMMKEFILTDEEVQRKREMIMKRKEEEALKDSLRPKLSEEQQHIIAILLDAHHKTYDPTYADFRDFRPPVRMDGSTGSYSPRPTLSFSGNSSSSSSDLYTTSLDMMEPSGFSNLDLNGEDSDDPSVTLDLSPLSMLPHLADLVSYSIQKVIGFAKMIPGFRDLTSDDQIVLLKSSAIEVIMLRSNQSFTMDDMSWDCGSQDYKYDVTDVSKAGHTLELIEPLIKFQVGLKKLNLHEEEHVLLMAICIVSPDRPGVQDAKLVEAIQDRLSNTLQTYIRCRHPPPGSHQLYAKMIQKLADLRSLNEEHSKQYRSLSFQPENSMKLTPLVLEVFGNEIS", "test": "Vitamin D receptor competitive binding with [3H]-1,25(OH)2D3", "settings": "full-length recombinant rat VDR, FIG. 1", "from_the_text": "Vitamin D Receptor Binding\nFull-length recombinant rat receptor was expressed in E. coli BL21 (DE3) Codon Plus RIL cells and purified to homogeneity using two different column chromatography systems. The first system was a nickel affinity resin that utilizes the C-terminal histidine tag on this protein. The protein that was eluted from this resin was further purified using ion exchange chromatography (S-Sepharose Fast Flow). Aliquots of the purified protein were quick frozen in liquid nitrogen and stored at −80° C. until use. For use in binding assays, the protein was diluted in TEDK50 (50 mM Tris, 1.5 mM EDTA, pH7.4, 5 mM DTT, 150 mM KCl) with 0.1% Chaps detergent. The receptor protein and ligand concentration were optimized such that no more than 20% of the added radiolabeled ligand was bound to the receptor.\nRadiolabeled and unlabeled ligands were added to 100 mcl of the diluted protein at a final ethanol concentration of ≦10%, mixed and incubated overnight on ice to reach binding equilibrium. The following day, 100 mcl of hydroxylapatite slurry (50%) was added to each tube and mixed at 10-minute intervals for 30 minutes. The hydroxylapaptite was collected by centrifugation and then washed three times with Tris-EDTA buffer (50 mM Tris, 1.5 mM EDTA, pH 7.4) containing 0.5% Titron X-100. […] Total binding was determined from the tubes containing only radiolabeled ligand."}, "[5]": {"tested_on": "Human promyelocytic leukemia (HL60) cells", "test": "HL-60 cell differentiation (nitro blue tetrazolium reduction)", "type": "cell-based", "settings": "FIG. 2; for EC50: HL60 cells, 4 days, NBT reduction", "description": "The study drugs were dissolved in ethanol and the concentrations determined using UV spectrophotometry. Serial dilutions were prepared so that a range of drug concentrations could be tested without changing the final concentration of ethanol (≦0.2%) present in the cell cultures.\nHuman promyelocytic leukemia (HL60) cells were grown in RPMI-1640 medium containing 10% fetal bovine serum. The cells were incubated at 37° C. in the presence of 5% CO2.\nHL60 cells were plated at 1.2×10^5 cells/ml. Eighteen hours after plating, cells in duplicate were treated with drug. […] The percentage of differentiated cells was determined by counting a total of 200 cells and recording the number that contained intracellular black-blue formazan deposits. Verification of differentiation to monocytic cells was determined by measuring phagocytic activity (data not shown)."}}, "data": [{"smiles": "CCC(C)C1CCC2C(=CC=C3CC(O)C(C)C(O)C3)CCCC21C", "note": "[2α-methylbisP, 2α-methyl-19-nor-(20S)-1α-hydroxy-bishomopregnacalciferol]", "values": [{"measurement": "mobilization of bone calcium", "setting": "[1]; 87 pmol/day for 4 consecutive days, rats on 0.02% Ca diet, FIG. 4", "result": "did not result in mobilization of bone calcium"}, {"measurement": "mobilization of bone calcium", "setting": "[1]; 260 pmol/day, 780 pmol/day and 7020 pmol/day, rats on 0.02% Ca diet, FIG. 4", "result": "without any substantial effect"}, {"measurement": "bone calcium mobilization activity as compared to 1,25(OH)2D3", "setting": "[1]; FIG. 4, overall", "result": "very little bone calcium mobilization activity"}, {"measurement": "transcriptional activity in bone cells compared to 1α,25-dihydroxyvitamin D3", "setting": "[2]", "result": "about the same transcriptional activity"}, {"measurement": "EC50", "setting": "[2]; ROS 17/2.8 cells, 24-OHase promoter-luciferase, 16 h, read-out: EC50, transcriptional activity in bone cells", "result": 4.4, "unit": "nM"}, {"measurement": "intestinal calcium transport", "setting": "[3]; 87 pmol/day, 260 pmol/day or 780 pmol/day", "result": "does not promote intestinal calcium transport"}, {"measurement": "intestinal calcium transport", "setting": "[3]; 2340 pmol/day", "result": "significant intestinal calcium transport activity was recorded"}, {"measurement": "activity in stimulating intestinal calcium transport as compared to 1,25(OH)2D3", "setting": "[3]; FIG. 5, overall", "result": "very little activity"}, {"measurement": "binding to the receptor as compared to the standard 1,25-(OH)2D3", "setting": "[4]", "result": "bound slightly less"}, {"measurement": "Ki", "setting": "[4]; read-out: Ki, competition with [3H]-1,25(OH)2D3 for binding to the vitamin D receptor", "result": 1.6, "unit": "nM"}, {"measurement": "potency on HL-60 cell differentiation compared to 1,25(OH)2D3", "setting": "[5]", "result": "almost as potent as 1,25(OH)2D3"}, {"measurement": "EC50", "setting": "[5]; Homo sapiens, HL-60, 96 h", "result": 37, "unit": "nM"}]}, {"smiles": "C=C1/C(=C\\C=C2/CCC[C@]3(C)[C@@H]([C@H](C)CCCC(C)(C)O)CC[C@@H]23)C[C@@H](O)C[C@@H]1O", "note": "[1,25(OH)2D3, 1α,25-dihydroxyvitamin D3, reference compound]", "values": [{"measurement": "serum calcium levels (bone calcium mobilization)", "setting": "[1]; rats on 0.02% Ca diet, 4 consecutive ip doses, all dosages, FIG. 4", "result": "increased serum calcium levels at all dosages"}, {"measurement": "intestinal calcium transport", "setting": "[3]; 260 pmol/day", "result": "promotes a significant increase"}, {"measurement": "EC50", "setting": "[5]", "result": 3.6, "unit": "nM"}]}]}
